According to patent US20220064146A1, “KINASE INHIBITOR COMPOUNDS AND COMPOSITIONS AND METHODS OF USE” (ICAHN SCHOOL OF MEDICINE AT MOUNT SINAI, priority 2018, published 2022):
pIC50: −log10 of the molar value.

Molecular target: T1, DYRK1/DYRK1A (Homo sapiens, UniProt Q13627)
T1 construct: purchased Reaction Biology Corp. (assay service)
Test: DYRK1/DYRK1A IC50 assay (Reaction Biology Corp.)
Type: biochemical
Settings: DYRK1/DYRK1A assay from Reaction Biology Corp.; NI: No inhibition

| Structure (SMILES) | pIC50 |
| --- | --- |
| O=c1[nH]c2ccc(-c3cnc(Nc4ccccc4F)nc3)cc2[nH]1 [Compound 48a, 5-(2-((2-Fluorophenyl)amino)pyrimidin-5-yl)-1H-benzo[d]imidazol-2(3H)-one] | 7.11 |
| O=c1[nH]c2ccc(-c3cnc(NCc4ccccc4)nc3)cc2n1C1CC1 [Compound 57c, 6-(2-(Benzylamino)pyrimidin-5-yl)-1-cyclopropyl-1H-benzo[d]imidazol-2(3H)-one] | 6.15 |
| O=c1[nH]c2ccc(-c3cnc(Nc4ccc(Cl)cc4)nc3)cc2[nH]1 [Compound 48f, 5-(2-((4-Chlorophenyl)amino)pyrimidin-5yl)-1H-benzo[d]imidazol-2 (3H)-one] | 7.04 |
| O=c1[nH]c2ccc(-c3cnc(NCc4ncc[nH]4)nc3)cc2[nH]1 [Compound 51c, 5-(2-(((1H-Imidazol-2-yl)methyl)amino)pyrimidin-5-yl)-1H-benzo[d]imidazol-2(3H)-one] | 6.02 |
| C[C@H](Nc1ncc(-c2ccc3[nH]c(=O)[nH]c3c2)cn1)c1ccccc1 [Compound 60b, (S)-5-(2-((1-Phenylethyl)amino)pyrimidin-5-yl)-1H-benzo[d]imidazol-2(3H)-one] | 6.75 |
| O=c1[nH]c2ccc(-c3cnc(NCc4ncco4)nc3)cc2[nH]1 [Compound 51f, 5-(2-((Oxazol-2-ylmethyl)amino)pyrimidin-5-yl)-1H-benzo[d]imidazol-2(3H)-one] | 6.37 |
| CCn1c(=O)[nH]c2ccc(-c3cnc(NCc4ccccc4)nc3)cc21 [Compound 57a, 6-(2-(Benzylamino)pyrimidin-5-yl)-1-ethyl-1H-benzo[d]imidazol-2(3H)-one] | 6.61 |
| CC(C)n1c(=O)[nH]c2ccc(-c3cnc(NCc4ccccc4)nc3)cc21 [Compound 57b, 6-(2-(Benzylamino)pyrimidin-5-yl)-1-isopropyl-1H-benzo[d]imidazol-2(3H)-one] | 5.37 |
| C[C@@H](Nc1ncc(-c2ccc3[nH]c(=O)[nH]c3c2)cn1)c1ccccc1 [Compound 60a, (R)-5-(2-((1-Phenylethyl)amino)pyrimidin-5-yl)-1H-benzo[d]imidazol-2(3H)-one] | 6.30 |

These reach a higher pIC50. Values come first.

| pIC50 | Structure (SMILES) |
| --- | --- |
| 7.14 | O=c1[nH]c2ccc(-c3cnc(NCc4ccco4)nc3)cc2[nH]1 [Compound 51a, 5-(2-((Furan-2-ylmethyl)amino)pyrimidin-5-yl)-1H-benzo[d]imidazol-2(3H)-one] |
| 7.24 | O=c1[nH]c2ccc(-c3cnc(Nc4ccc(F)cc4)nc3)cc2[nH]1 [Compound 48c, 5-(2-((4-Fluorophenyl)amino)pyrimidin-5-yl)-1H-benzo[d]imidazol-2(3H)-one] |
| 7.26 | O=c1[nH]c2ccc(-c3cnc(Nc4cccc(Cl)c4)nc3)cc2[nH]1 [Compound 48e, 5-(2-((3-Chlorophenyl)amino)pyrimidin-5-yl)-1H-benzo[d]imidazol-2 (3H)-one] |
| 7.32 | COCCOc1cccc(CNc2ncc(-c3ccc4[nH]c(=O)[nH]c4c3)cn2)c1 [Compound 62, 5-(2-((3-(2-Methoxyethoxy)benzyl)amino)pyrimidin-5-yl)-1H-benzo[d]imidazol-2(3H)-one] |
| 7.32 | O=c1[nH]c2ccc(-c3cnc(Nc4cccc(F)c4)nc3)cc2[nH]1 [Compound 48b, 5-(2-((3-Fluorophenyl)amino)pyrimidin-5-yl)-1H-benzo[d]imidazol-2(3H)-one] |
| 7.49 | O=c1[nH]c2ccc(-c3cnc(NCc4cccs4)nc3)cc2[nH]1 [Compound 51b, 5-(2-((Thiophen-2-ylmethyl)amino)pyrimidin-5-yl)-1H-benzo[d]imidazol-2(3H)-one] |
| 8.95 | O=c1[nH]c2ccc(-c3cncc(NCc4ccccc4)n3)cc2[nH]1 [Compound 18m, 5-(6-(Benzylamino)pyrazin-2-yl)-1H-benzo[d]imidazol-2(3H)-one] |
